Test results published in article PMC11235583, “Structural basis of odor sensing by insect heteromeric odorant receptors” (Science (New York, N.Y.), 2024).

How the values were obtained:
[1] = target: T1, AaOR10 in complex with the Orco from Ae. aegypti (Aedes aegypti, UniProt Q177X3); assay: whole-cell voltage clamp, HEK293T cells; type: cell-based; conditions: agonist
T1 construct: gene GPRor10; both subunits from Ae. aegypti, co-expressed in HEK293T cells; stoichiometry not determined; with Odorant receptor coreceptor
T1 sequence (Q177X3 1-375): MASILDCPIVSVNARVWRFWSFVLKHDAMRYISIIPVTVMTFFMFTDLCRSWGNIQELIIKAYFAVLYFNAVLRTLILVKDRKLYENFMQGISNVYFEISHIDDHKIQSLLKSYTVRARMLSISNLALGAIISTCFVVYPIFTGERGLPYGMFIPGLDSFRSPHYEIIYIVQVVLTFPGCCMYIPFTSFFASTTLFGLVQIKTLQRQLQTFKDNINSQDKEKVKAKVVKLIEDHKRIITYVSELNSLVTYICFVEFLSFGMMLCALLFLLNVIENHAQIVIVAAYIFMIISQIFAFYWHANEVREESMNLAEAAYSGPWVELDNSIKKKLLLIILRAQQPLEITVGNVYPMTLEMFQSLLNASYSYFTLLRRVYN
T1 sequence (Q178U6 1-478 partner): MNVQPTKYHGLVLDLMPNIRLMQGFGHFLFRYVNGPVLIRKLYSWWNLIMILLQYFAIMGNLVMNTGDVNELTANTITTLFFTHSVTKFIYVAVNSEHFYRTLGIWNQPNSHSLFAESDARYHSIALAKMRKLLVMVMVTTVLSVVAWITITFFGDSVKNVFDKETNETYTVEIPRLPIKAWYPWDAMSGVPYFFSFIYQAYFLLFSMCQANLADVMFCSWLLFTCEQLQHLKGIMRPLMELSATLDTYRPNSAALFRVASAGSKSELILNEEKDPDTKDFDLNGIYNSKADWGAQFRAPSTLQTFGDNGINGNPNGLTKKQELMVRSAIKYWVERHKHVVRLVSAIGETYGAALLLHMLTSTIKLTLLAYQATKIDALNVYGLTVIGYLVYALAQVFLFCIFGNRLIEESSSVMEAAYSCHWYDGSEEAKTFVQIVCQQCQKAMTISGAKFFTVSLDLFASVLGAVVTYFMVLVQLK
Text: whole-cell voltage clamp, HEK293T cells on AaOR10 in complex with the Orco from Ae. aegypti | those obtained with AaOR10 in complex with the Orco from Ae. aegypti | AaOR10 with either A. bakeri (black) or Ae. aegypti Orco (gold)

[2] = target: T2, AaOR10/Orco (Ae. aegypti OR10 with A. bakeri Orco) (Aedes aegypti, UniProt Q177X3); assay: whole-cell voltage clamp, HEK293T cells; type: cell-based; conditions: agonist
T2 construct: gene GPRor10; co-expressed in HEK293 cells; with Odorant receptor coreceptor (Apocrypta bakeri)
T2 sequence (Q177X3 1-375): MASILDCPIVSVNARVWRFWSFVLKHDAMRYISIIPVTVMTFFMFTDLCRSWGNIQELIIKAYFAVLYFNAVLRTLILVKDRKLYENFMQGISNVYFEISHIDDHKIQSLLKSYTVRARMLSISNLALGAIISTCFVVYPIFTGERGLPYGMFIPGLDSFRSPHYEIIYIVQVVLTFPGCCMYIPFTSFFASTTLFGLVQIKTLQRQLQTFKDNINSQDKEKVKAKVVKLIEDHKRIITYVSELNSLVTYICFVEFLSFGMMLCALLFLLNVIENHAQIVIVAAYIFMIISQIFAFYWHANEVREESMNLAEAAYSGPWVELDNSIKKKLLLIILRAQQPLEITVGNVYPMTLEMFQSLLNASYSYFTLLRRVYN
T2 sequence (B0FAQ4 1-474 partner): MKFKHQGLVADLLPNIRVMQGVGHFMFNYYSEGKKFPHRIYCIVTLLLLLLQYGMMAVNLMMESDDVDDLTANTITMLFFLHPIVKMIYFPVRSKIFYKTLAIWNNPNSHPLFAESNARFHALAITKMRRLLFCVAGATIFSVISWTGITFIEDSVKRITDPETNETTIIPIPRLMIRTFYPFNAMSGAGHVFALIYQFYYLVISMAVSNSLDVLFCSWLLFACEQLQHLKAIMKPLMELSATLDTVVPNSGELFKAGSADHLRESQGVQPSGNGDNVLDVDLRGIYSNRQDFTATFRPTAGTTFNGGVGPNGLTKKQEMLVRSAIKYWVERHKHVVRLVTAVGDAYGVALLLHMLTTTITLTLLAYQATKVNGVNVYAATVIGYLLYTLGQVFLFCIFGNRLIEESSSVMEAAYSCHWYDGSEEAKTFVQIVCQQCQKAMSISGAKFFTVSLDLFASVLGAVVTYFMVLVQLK
Text: whole-cell voltage clamp, HEK293T cells on AaOR10/Orco (Ae. aegypti OR10 with A. bakeri Orco) | whole-cell currents of AaOR10/Orco are indistinguishable in EC50 and overall dose-response parameters | measure their response to indole and o-cresol, canonical odorants known to activate AaOR10 heteromers

[3] = target: T2, AaOR10/Orco (Ae. aegypti OR10 with A. bakeri Orco); assay: cryo-EM structure of complex; type: binding; conditions: 2.9 Å; one site, in the OR10 subunit (S2, S3, S4, S6)
[4] = target: Aedes aegypti odorant receptor OR10 (Aedes aegypti); assay: cryo-EM structure; AaOR10/Orco heteromers co-expressed in HEK293 cells (1:1 OR to Orco virus), purified by an affinity tag on the OR subunit, in detergent micelle; unbound and o-cresol-bound states
[5] = target: Anopheles gambiae odorant receptor OR28 (Anopheles gambiae); assay: cryo-EM structure; AgOR28 co-expressed with A. bakeri Orco, purified complex; unbound and 2,4,5-trimethylthiazole (TMT)-bound states
[6] = far from saturation at high concentration, limiting goodness of fit

## c1ccc2[nH]ccc2c1 [indole]
[1]
  EC50: 1.51 µM
[2]; Hill coefficient about one
  EC50: 1.09 µM

## Cc1ccccc1O [o-cresol]
[1]; [6]
  EC50: 11.3 µM
[2]; [6]
  EC50: 13.3 µM
[3]
  cryo-EM structure of complex: determined the cryo-EM structure of the AaOR10/Orco complex bound to o-cresol

B1: Apocrypta bakeri odorant receptor co-receptor Orco (receptor)
chain: MKFKHQGLVADLLPNIRVMQGVGHFMFNYYSEGKKFPHRIYCIVTLLLLLLQYGMMAVNLMMESDDVDDLTANTITMLFFLHPIVKMIYFPVRSKIFYKTLAIWNNPNSHPLFAESNARFHALAITKMRRLLFCVAGATIFSVISWTGITFIEDSVKRITDPETNETTIIPIPRLMIRTFYPFNAMSGAGHVFALIYQFYYLVISMAVSNSLDVLFCSWLLFACEQLQHLKAIMKPLMELSATLDTVVPNSGELFKAGSADHLRESQGVQPSGNGDNVLDVDLRGIYSNRQDFTATFRPTAGTTFNGGVGPNGLTKKQEMLVRSAIKYWVERHKHVVRLVTAVGDAYGVALLLHMLTTTITLTLLAYQATKVNGVNVYAATVIGYLLYTLGQVFLFCIFGNRLIEESSSVMEAAYSCHWYDGSEEAKTFVQIVCQQCQKAMSISGAKFFTVSLDLFASVLGAVVTYFMVLVQLK
[4]
  stoichiometry N (Orco subunits per OR subunit): 3
[5]
  stoichiometry N (Orco subunits per OR subunit): 3
